In publication PMC10141604, “Small-Molecule Inhibition of Androgen Receptor Dimerization as a Strategy against Prostate Cancer” (ACS Central Science, 2023):

How the values were obtained:
[1] = system: secreted PSA from LNCaP cells; experiment: Secreted prostate-specific antigen (PSA) assay; format: cell-based
Protocol: Secreted Prostate-Specific Antigen (PSA) Assay
After the AR transcriptional activity assay was completed, 300 μl of the media
supernatant including the secreted PSA was measured using […]® 2000 XPi
Immunoassay System (Siemens Ltd., Erlangen, Germany). […]

LNCaP = experiment: MTT cell viability assay, LNCaP; format: cell-based; conditions: 72 h
Protocol: (§1) 3-(4,5-dimethythiazol-2-yl)-2,5-diphenyl-2-H-tetrazolium bromide (MTT) colorimetric assay was employed to investigate cell viability. Cells were seeded into 96-well plates with 2-5× 10^3 cells per well (5× 10^3 cells/well for LNCaP, 22RV1, NIH-3T3, GES-1, Chang, […]
(§2) NCI-H1299, U2OS, U87) for 1 day incubation at 37 °C. Then, the cells were treated with various concentrations of compounds (22.86 nM - 50 μM) and incubated for 72 h. Then, 10 μl MTT (5 mg/ml) was added into each well and incubated for 4 h. Afterwards, 100 μl of triplex 10% SDS-0.1% HCl-phosophate-buffered saline (PBS) solutions was added into each well and incubated for overnight. The absorbance at 570 nm was measured (Eon, Bioteck, Winooski, VT). […]

AR = biological target: T1, AR (Homo sapiens, UniProt P10275, T878A); experiment: AR transcriptional activity assay (LNCaP-ARR2PB-eGFP cells); format: cell-based; conditions: 5 nM DHT
T1 construct: The cells of LNCaP-ARR2PB-eGFP were; endogenous in cells; host or cells: LNCaP-ARR2PB-eGFP
T1 sequence (P10275 1-920 T878A): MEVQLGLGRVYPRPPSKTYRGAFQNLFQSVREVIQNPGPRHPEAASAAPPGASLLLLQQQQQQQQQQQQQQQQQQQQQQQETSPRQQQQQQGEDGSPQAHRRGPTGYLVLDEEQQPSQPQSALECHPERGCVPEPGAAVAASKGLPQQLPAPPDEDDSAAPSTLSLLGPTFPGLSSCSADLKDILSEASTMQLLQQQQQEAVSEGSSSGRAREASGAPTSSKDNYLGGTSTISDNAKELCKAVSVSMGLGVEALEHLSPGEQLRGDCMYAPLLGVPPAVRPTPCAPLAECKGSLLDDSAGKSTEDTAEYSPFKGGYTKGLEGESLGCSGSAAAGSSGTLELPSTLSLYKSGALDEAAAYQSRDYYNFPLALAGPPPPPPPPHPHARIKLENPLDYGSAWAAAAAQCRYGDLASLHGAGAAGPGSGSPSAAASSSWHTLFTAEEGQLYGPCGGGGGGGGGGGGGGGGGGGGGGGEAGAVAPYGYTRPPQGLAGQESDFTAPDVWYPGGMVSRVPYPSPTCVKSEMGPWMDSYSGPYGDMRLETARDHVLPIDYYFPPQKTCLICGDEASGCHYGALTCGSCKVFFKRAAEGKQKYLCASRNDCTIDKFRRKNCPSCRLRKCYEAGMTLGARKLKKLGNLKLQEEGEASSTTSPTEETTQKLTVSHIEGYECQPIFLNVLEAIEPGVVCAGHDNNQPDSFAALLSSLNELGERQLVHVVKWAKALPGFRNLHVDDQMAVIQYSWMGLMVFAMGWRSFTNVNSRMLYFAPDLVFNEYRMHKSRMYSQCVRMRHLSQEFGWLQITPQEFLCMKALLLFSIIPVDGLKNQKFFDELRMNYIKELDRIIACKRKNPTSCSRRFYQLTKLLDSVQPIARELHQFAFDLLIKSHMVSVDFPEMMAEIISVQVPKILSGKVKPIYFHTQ
Protocol: University, Hangzhou, China), respectively. […]
AR Transcriptional Activity Assay
The AR transcriptional activities were determined using the constructed LNCaP-ARR2PB-eGFP cell as previously reported.11, 12 The cells of LNCaP-ARR2PB-eGFP were […]
by seeding into a 96 -well plate (3.5× 10^4 cells/well) for 1 day incubation at 37 °C. Then, the cells were treated with 5 nM DHT and various concentrations of compounds (10 μM […]
the fluorescence intensities were determined using a Synergy H1 microplate reader

AR LBP = biological target: T2, AR LBP (Rattus norvegicus, UniProt P15207); experiment: Competitive ligand-binding assay (PolarScreen AR competitor assay)
T2 construct: purchased Invitrogen Life Technologies A15880
T2 sequence (P15207 651-882 limits assumed): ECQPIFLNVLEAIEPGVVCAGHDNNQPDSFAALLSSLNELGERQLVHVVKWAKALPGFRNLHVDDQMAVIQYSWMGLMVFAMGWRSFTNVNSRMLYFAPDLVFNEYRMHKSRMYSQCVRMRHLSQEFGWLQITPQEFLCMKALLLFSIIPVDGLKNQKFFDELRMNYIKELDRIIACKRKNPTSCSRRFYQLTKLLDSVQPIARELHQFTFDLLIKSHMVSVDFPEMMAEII
Protocol: Competitive Ligand Binding Assay
The binding affinities of M17 and M17-B15 to the LBP of AR LBD were determined
using PolarScreen™ Androgen Receptor Competitor Assay Kit (#A15880, Invitrogen Life
Technologies) according to the user manual. […]

NIH-3T3 = experiment: MTT cell viability assay, NIH-3T3; format: cell-based, murine; conditions: 72 h
Protocol: as §1, §2

Structure (SMILES): CC(=O)Cc1nsc(NC(=O)c2cc(-c3ccc(Cl)c(Cl)c3)oc2C)n1 [Compound M17]
- inhibition of the secretion of PSA [1]: dose-dependently inhibits
- inhibition of LNCaP viability (LNCaP): dose-dependent manner in the inhibition
- IC50 (AR; LNCaP-ARR2PB-eGFP cells, 3 days): 950 ± 390 nM
- inhibition at 10 µM (AR; at 10 μM): 92.7%
- binding to the conventional LBP (AR LBP): excluded
- cytotoxicity against NIH-3T3 (NIH-3T3): negligible cytotoxicity
